According to patent publication US11584742B2 (MASARYKOVA UNIVERZITA, priority 2018, dated 2023):

Tests used:
[1] = biological target: T1, MRE11 (Homo sapiens, UniProt P49959); experiment: HTS nuclease assay (cleavage of CY5/BBQ-quenched 5' overhang DNA substrate); type: biochemical; conditions: in vitro HTS nuclease assay; 18 nM MRE11, 40 nM DNA substrate; analysis at t=4 h
T1 sequence (P49959 1-708): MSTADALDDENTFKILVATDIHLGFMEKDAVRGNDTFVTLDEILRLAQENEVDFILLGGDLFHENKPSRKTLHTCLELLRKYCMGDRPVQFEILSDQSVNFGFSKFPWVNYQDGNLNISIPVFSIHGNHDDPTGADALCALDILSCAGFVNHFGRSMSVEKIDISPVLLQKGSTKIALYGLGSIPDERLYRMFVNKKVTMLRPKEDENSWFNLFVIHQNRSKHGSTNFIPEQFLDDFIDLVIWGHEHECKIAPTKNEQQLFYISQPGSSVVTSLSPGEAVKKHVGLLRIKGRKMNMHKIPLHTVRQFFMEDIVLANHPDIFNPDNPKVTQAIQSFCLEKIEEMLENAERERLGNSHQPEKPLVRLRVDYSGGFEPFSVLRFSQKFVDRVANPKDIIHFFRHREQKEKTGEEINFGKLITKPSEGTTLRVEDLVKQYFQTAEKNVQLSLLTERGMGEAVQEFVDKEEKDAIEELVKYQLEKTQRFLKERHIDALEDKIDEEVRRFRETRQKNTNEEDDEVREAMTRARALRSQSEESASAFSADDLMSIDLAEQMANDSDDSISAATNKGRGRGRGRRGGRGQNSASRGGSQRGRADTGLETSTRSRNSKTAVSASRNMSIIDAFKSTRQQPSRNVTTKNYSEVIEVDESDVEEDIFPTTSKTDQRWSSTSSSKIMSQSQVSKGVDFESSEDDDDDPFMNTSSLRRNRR
Protocol: DNA Substrate Preparation
The DNA substrate is prepared by mixing the oligonucleotides listed below in a 1:1 ratio to reach a final concentration of 6 μM in a buffer containing 50 mM Tris pH 7.5, 100 mM NaCl and 8 mM MgCl2.
This substrate is a 5′ overhang, which is a preferred substrate of MRE11. […] The fluorescence increases upon substrate cleavage by MRE11, when separation of the two labels occur.
The conditions of the assay are as follows:
Total reaction volume: 5 μL
DNA substrate concentration in the reaction: 40 nM
Inhibitor concentration range tested: 7 nM-50 μM
Each plate contains a series of high and low signal control wells, where no compound is added:
High signal: MRE11+DNA substrate
Low signal: DNA substrate only
These are used during data evaluation.
Two extra assay controls:
1) To check whether unwinding of DNA by the compounds alone occurs.
The DNA substrate [CY5+BBQ(650)] is mixed with the compounds with no protein present.
The CY5 single stranded oligo is mixed with the compounds with no protein present.
The layout of the plates is created by the in-house software (CZ-Openscreen Prague) and this information is transferred to the robotic HTS station.
The reaction is started by the addition of DNA and the reaction time is counted from that moment, including a 15 min delay. Ten timepoints are measured:
The assay data analysis was performed at t=4 h. This corresponds to the time when the reaction is close to its maximum.
The data analysis was performed using the in-house software to obtain IC50 for each compound.

[2] = tested on: DR-GFP U2OS cells; experiment: HR assay (GFP fluorescence after I-SceI transfection, flow cytometry); type: cell-based; conditions: Homo sapiens, inhibitor at 25 μM, 72 hours after transfection
Protocol: DR-GFP U2OS cells (Methods in Molecular Biology 2012, 920, 379.) were transfected with 2.5 μg of I-SceI-expressing pCAGGS vector and treated with the inhibitors at 25 μM concentration. 72 hours after the transfection, the cells were trypsinized and resuspended in 3% BSA in PBS. GFP fluorescence detection was carried out using a BD FACSVerse flow cytometer and data analyzed with FlowJo software.

SMILES: COc1ccc(-c2csc(NC(=O)/C(C#N)=C/c3ccc(O)c(O)c3)n2)cc1O [Preparative Example 166, (E)-2-cyano-3-(3,4-dihydroxyphenyl)-N-(4-(3-hydroxy-4-methoxyphenyl)thiazol-2-yl)acrylamide]
- IC50 [1]: < 2000 nM
- inhibition at 25 µM [2]: > 75%

SMILES: N#C/C(=C\c1ccccc1F)C(=O)Nc1nc(-c2ccccc2)cs1 [Preparative Example 206, (E)-2-cyano-3-(2-fluorophenyl)-N-(4-phenylthiazol-2-yl)acrylamide]
- IC50 [1]: 2000 to 10000 nM
- inhibition at 25 µM [2]: < 50%

SMILES: N#C/C(=C\c1ccc(O)c(O)c1)C(=O)Nc1nc(-c2ccc(-c3ccccc3)cc2)cs1 [Preparative Example 164, (E)-N-(4-([1,1′-biphenyl]-4-yl)thiazol-2-yl)-2-cyano-3-(3,4-dihydroxyphenyl)acrylamide]
- IC50 [1]: 2000 to 10000 nM
- inhibition at 25 µM [2]: > 75%

SMILES: C#Cc1ccc(-c2csc(NC(=O)/C(C#N)=C/c3ccc(O)c(O)c3)n2)cc1 [Preparative Example 197, (E)-2-cyano-3-(3,4-dihydroxyphenyl)-N-(4-(4-ethynylphenyl)thiazol-2-yl)acrylamide]
- IC50 [1]: < 2000 nM
- inhibition at 25 µM [2]: > 75%

SMILES: N#C/C(=C\c1ccc(O)c(O)c1)C(=O)Nc1nc(-c2cccnn2)cs1 [Preparative Example 186]
- IC50 [1]: < 2000 nM
- inhibition at 25 µM [2]: < 50%

SMILES: CC(C)(O)c1ccc(-c2csc(NC(=O)/C(C#N)=C/c3ccc(O)c(O)c3)n2)cc1 [Preparative Example 182, (E)-2-cyano-3-(3,4-dihydroxyphenyl)-N-(4-(4-(2-hydroxypropan-2-yl)phenyl)thiazol-2-yl)acrylamide]
- IC50 [1]: < 2000 nM
- inhibition at 25 µM [2]: 50 to 75%

SMILES: Cc1cc(O)ccc1/C=C(\C#N)C(=O)Nc1nc(-c2ccccc2)cs1 [Preparative Example 225, (E)-2-cyano-3-(4-hydroxy-2-methylphenyl)-N-(4-phenylthiazol-2-yl)acrylamide]
- IC50 [1]: 10000 to 90000 nM
- inhibition at 25 µM [2]: < 50%

SMILES: N#C/C(=C\c1cnc(O)c(O)c1)C(=O)Nc1nc(-c2ccccc2)cs1 [Preparative Example 200, (E)-2-cyano-3-(5,6-dihydroxypyridin-3-yl)-N-(4-phenylthiazol-2-yl)acrylamide]
- IC50 [1]: 2000 to 10000 nM
- inhibition at 25 µM [2]: < 50%

SMILES: CC(=O)Nc1ccc(/C=C(\C#N)C(=O)Nc2nc(-c3ccccc3)cs2)cc1O [Preparative Example 223, (E)-3-(4-acetamido-3-hydroxyphenyl)-2-cyano-N-(4-phenylthiazol-2-yl)acrylamide]
- IC50 [1]: 10000 to 90000 nM
- inhibition at 25 µM [2]: < 50%

SMILES: COc1cc(/C=C(\C#N)C(=O)Nc2nc(-c3ccccc3)cs2)cc(F)c1O [Preparative Example 203, (E)-2-cyano-3-(3-fluoro-4-hydroxy-5-methoxyphenyl)-N-(4-phenylthiazol-2-yl)acrylamide]
- IC50 [1]: 2000 to 10000 nM
- inhibition at 25 µM [2]: < 50%

SMILES: N#C/C(=C\c1ccc(O)cc1F)C(=O)Nc1nc(-c2ccccc2)cs1 [Preparative Example 226, (E)-2-cyano-3-(2-fluoro-4-hydroxyphenyl)-N-(4-phenylthiazol-2-yl)acrylamide]
- IC50 [1]: 10000 to 90000 nM
- inhibition at 25 µM [2]: > 75%

SMILES: N#C/C(=C\c1ccc(O)c(O)c1)C(=O)Nc1nc(-c2cc(F)cc(F)c2)cs1 [Preparative Example 185, (E)-2-cyano-N-(4-(3,5-difluorophenyl)thiazol-2-yl)-3-(3,4-dihydroxyphenyl)acrylamide]
- IC50 [1]: < 2000 nM
- inhibition at 25 µM [2]: 50 to 75%

SMILES: N#C/C(=C\c1ccc(O)c(O)c1)C(=O)Nc1nc(-c2ccccc2)c(-c2cnccn2)s1 [Preparative Example 238, (E)-2-cyano-3-(3,4-dihydroxyphenyl)-N-(4-phenyl-5-(pyrazin-2-yl)thiazol-2-yl)acrylamide]
- IC50 [1]: < 2000 nM
- inhibition at 25 µM [2]: 50 to 75%

SMILES: N#C/C(=C\c1ccc(O)c(O)c1)C(=O)Nc1nc(C23CC4CC(CC(C4)C2)C3)cs1 [Preparative Example 174, (E)-N-(4-((1S,3s)-adamantan-1-yl)thiazol-2-yl)-2-cyano-3-(3,4-dihydroxyphenyl)acrylamide]
- IC50 [1]: 2000 to 10000 nM
- inhibition at 25 µM [2]: 50 to 75%

SMILES: N#C/C(=C\c1ccc(O)c(O)c1)C(=O)Nc1nc(-c2cccc(F)c2)cs1 [Preparative Example 236, (E)-2-cyano-3-(3,4-dihydroxyphenyl)-N-(4-(3-fluorophenyl)thiazol-2-yl)acrylamide]
- IC50 [1]: < 2000 nM
- inhibition at 25 µM [2]: 50 to 75%

SMILES: N#C/C(=C\c1cccc(C(=O)O)c1)C(=O)Nc1nc(-c2ccccc2)cs1 [Preparative Example 210, (E)-3-(2-cyano-3-oxo-3-((4-phenylthiazol-2-yl)amino)prop-1-en-1-yl)benzoic acid]
- IC50 [1]: 10000 to 90000 nM
- inhibition at 25 µM [2]: < 50%

SMILES: COc1ccc(-c2csc(NC(=O)/C(C#N)=C/c3ccc(O)c(O)c3)n2)cc1C1CC1 [Preparative Example 198, (E)-2-cyano-N-(4-(3-cyclopropyl-4-methoxyphenyl)thiazol-2-yl)-3-(3,4-dihydroxyphenyl)acrylamide]
- IC50 [1]: < 2000 nM
- inhibition at 25 µM [2]: > 75%

SMILES: N#C/C(=C\c1ccc(O)c(O)c1)C(=O)Nc1nc(-c2ccccc2)c(Br)s1 [Preparative Example 196, (E)-N-(5-bromo-4-phenylthiazol-2-yl)-2-cyano-3-(3,4-dihydroxyphenyl)acrylamide]
- IC50 [1]: < 2000 nM
- inhibition at 25 µM [2]: 50 to 75%

SMILES: N#C/C(=C\c1ccc(O)c(O)c1)C(=O)Nc1nc(-c2ccc(F)cc2)cs1 [Preparative Example 187, (E)-2-cyano-3-(3,4-dihydroxyphenyl)-N-(4-(4-fluorophenyl)thiazol-2-yl)acrylamide]
- IC50 [1]: < 2000 nM
- inhibition at 25 µM [2]: > 75%

SMILES: CN(C)C(=O)c1ccc(-c2csc(NC(=O)/C(C#N)=C/c3ccc(O)c(O)c3)n2)cc1 [Preparative Example 181, (E)-4(2-(2-cyano-3-(3,4-dihydroxyphenyl)acrylamido)thiazol-4-yl)-N,N-dimethylbenzamide]
- IC50 [1]: < 2000 nM
- inhibition at 25 µM [2]: < 50%

SMILES: N#C/C(=C\c1ccc(O)c(O)c1)C(=O)Nc1nc(-c2ccccc2)c(Cl)s1 [Preparative Example 195, (E)-N-(5-chloro-4-phenylthiazol-2-yl)-2-cyano-3-(3,4-dihydroxyphenyl)acrylamide]
- IC50 [1]: < 2000 nM
- inhibition at 25 µM [2]: 50 to 75%

SMILES: N#C/C(=C\c1ccc(O)c(O)c1)C(=O)Nc1nc(-c2cc3ccccc3o2)cs1 [Preparative Example 173, (E)-N-(4-(benzofuran-2-yl)thiazol-2-yl)-2-cyano-3-(3,4-dihydroxyphenyl)acrylamide]
- IC50 [1]: < 2000 nM
- inhibition at 25 µM [2]: > 75%

SMILES: Cc1cc(C(C)(C)C)cc(C)c1-c1csc(NC(=O)/C(C#N)=C/c2ccc(O)c(O)c2)n1 [Preparative Example 246, (E)-N-(4-(4-(tert-butyl)-2,6-dimethylphenyl)thiazol-2-yl)-2-cyano-3-(3,4-dihydroxyphenyl)acrylamide]
- IC50 [1]: < 2000 nM
- inhibition at 25 µM [2]: > 75%

SMILES: N#C/C(=C\c1cccc(C(F)(F)F)c1)C(=O)Nc1nc(-c2ccccc2)cs1 [Preparative Example 231, (E)-2-cyano-N-(4-phenylthiazol-2-yl)-3-(3-(trifluoromethyl)phenyl)acrylamide]
- IC50 [1]: 2000 to 10000 nM
- inhibition at 25 µM [2]: < 50%

SMILES: N#C/C(=C\c1ccc2cn[nH]c2c1)C(=O)Nc1nc(-c2ccccc2)cs1 [Preparative Example 205, (E)-2-cyano-3-(1H-indazol-6-yl)-N-(4-phenylthiazol-2-yl)acrylamide]
- IC50 [1]: 2000 to 10000 nM
- inhibition at 25 µM [2]: < 50%

SMILES: COC(=O)c1ccc(-c2csc(NC(=O)/C(C#N)=C/c3ccc(O)c(O)c3)n2)cc1 [Preparative Example 189, Methyl (E)-4-(2-(2-cyano-3-(3,4-dihydroxyphenyl)acrylamido)thiazol-4-yl)benzoate]
- IC50 [1]: < 2000 nM
- inhibition at 25 µM [2]: 50 to 75%
